What was measured:
[1] = system: K562 cells expressing wild-type DNA-PKcs; assay: Genome editing of FRMD7 with Cas9 in K562 cells, amplicon sequencing (HDR / precise genome editing efficiency); format: cell-based, human; conditions: for HDR-increasing effect / precise genome editing efficiency, comparison of DNA-PKcs inhibitors: K562 cells, Cas9 induced DSB, 2 μM and 20 μM
Experimental: Cells were grown at 37° C. in a humidified incubator gassed with 5% CO2.
The recombinant A.s. Cpf1 and S.p. Cas9 protein and electroporation enhancer was ordered from IDT (Coralville, USA) and nucleofection was done using the manufacturer's protocol, except for the following alterations. […] Cells were counted using the Countess Automated Cell Counter (Invitrogen).
Incubation at 65° C. for 10 min, 68° C. for 5 min and finally 98° C. for 5 min was performed to yield ssDNA as a PCR template. […] PCR was done in a T100 Thermal Cycler (Bio-Rad) using the KAPA2G Robust PCR Kit (Peqlab, 07-KK5532-03) with supplied buffer B and 3 μl of cell extract in a total volume of 25 μl. The thermal cycling profile of the PCR was: 95° C.

[2] = system: 409B2 hiPSCs; assay: Genome editing of FRMD7 with Cas9 protein in 409B2 hiPSCs; format: cell-based, human; conditions: 2 μM, Cas9 induced DSB
Excerpt: FIG. 5: Comparison of the effect of DNA-PK inhibitors on genome editing efficiency. Editing efficiencies of FRMD7 with Cas9 protein and treatment with different concentrations of M3814, NU7026, and NU7441 are shown for K562 cells (A) and 409B2 hiPSCs (B). HDR, mix (HDR with indels), NHEJ, and MMEJ are indicated in green, light green, light blue and light purple, respectively. Error bars show the SEM of three replicates. A skull indicates excessive cell death of up to around 80% determined by phase contrast light microscopy.
(§1) We recently created an iCRISPR-Cas9n line from human induced pluripotent stem cells (hiPSCs) (409-B2, Riken BioResource Center) and human embryonic stem cells (hESCs) (H9) as described by Gonzalez et al. Stem cells were grown on Matrigel Matrix (Corning, 35248) in mTeSR1 medium (StemCell Technologies, 05851) with supplement (StemCell Technologies, 05852) that was replaced daily. K562 cells (ECACC, 89121407) were grown with IMDM (ThermoFisher, 12440053) supplemented with 10% FBS. Cells were grown at 37° C. in a humidified incubator gassed with 5% CO2. Media was replaced every second day for non-pluripotent cell lines. Cell cultures were maintained 4-6 days until ~80% confluency, and subcultured at a 1:6 to 1:10 dilution. Adherent cells were dissociated using EDTA (VWR, 437012C). The media was supplemented with 10 μM Rho-associated protein kinase (ROCK) inhibitor Y-27632 (Calbiochem, 688000) after cell splitting for one day in order to increase cell survival.
The recombinant A.s. Cpf1 and S.p. Cas9 protein and electroporation enhancer was ordered from IDT (Coralville, USA) and nucleofection was done using the manufacturer's protocol, except for the following alterations. […] Cells were counted using the Countess Automated Cell Counter (Invitrogen). […]

[3] = system: wild-type cell line, NFASC target; assay: Genome editing of NFASC target with transient NHEJ/MMEJ/SSA inhibition in a wild-type cell line; format: cell-based; conditions: combination of 2 μM M3814, 320 pmol PoIQ siRNA aa765, PoIQ coding strand nicking, 5 μM 6-OH-dopa, 50 μM AICAR
Excerpt: FIG. 7: Inhibition of RAD52 dependent single strand annealing (SSA) together with MMEJ inhibition is needed to further increase HDR for rare targets with long stretches of homology. The NFASC target has an 11 bp stretch of homology. The first three bars show editing efficiencies in a wild-type cell line, a DNA-PKcs KR cell line leading to NHEJ inhibition, and a DNA-PKcs KR+PoIQ Knockout cell line leading to NHEJ and MMEJ inhibition. […] HDR, mix (HDR with indels), NHEJ, and estimated MMEJ/SSA (at least 2 bp microhomology) are indicated in green, light green, light blue, and light purple, respectively. Error bars show the SEM of at least two replicates and one experiment for the last bar.
In some cases the target for genome editing has long homology stretches around the cleavage site. […] We speculated that indel formation was carried out by the RAD52 dependent single strand annealing pathway (SSA) which uses long stretched of homology.

[4] = system: mouse embryos; conditions: cited from earlier work
[5] = system: HEK293A cells; conditions: cited from earlier work
[6] = system: rabbit embryos; conditions: cited from earlier work
[7] = system: human stem cells; conditions: cited from earlier work
[8] = biological target: human LIG4 (Homo sapiens, UniProt P49917); conditions: Greco et al. 2016; cited from earlier work
Chain of human LIG4 (P49917 whole entry): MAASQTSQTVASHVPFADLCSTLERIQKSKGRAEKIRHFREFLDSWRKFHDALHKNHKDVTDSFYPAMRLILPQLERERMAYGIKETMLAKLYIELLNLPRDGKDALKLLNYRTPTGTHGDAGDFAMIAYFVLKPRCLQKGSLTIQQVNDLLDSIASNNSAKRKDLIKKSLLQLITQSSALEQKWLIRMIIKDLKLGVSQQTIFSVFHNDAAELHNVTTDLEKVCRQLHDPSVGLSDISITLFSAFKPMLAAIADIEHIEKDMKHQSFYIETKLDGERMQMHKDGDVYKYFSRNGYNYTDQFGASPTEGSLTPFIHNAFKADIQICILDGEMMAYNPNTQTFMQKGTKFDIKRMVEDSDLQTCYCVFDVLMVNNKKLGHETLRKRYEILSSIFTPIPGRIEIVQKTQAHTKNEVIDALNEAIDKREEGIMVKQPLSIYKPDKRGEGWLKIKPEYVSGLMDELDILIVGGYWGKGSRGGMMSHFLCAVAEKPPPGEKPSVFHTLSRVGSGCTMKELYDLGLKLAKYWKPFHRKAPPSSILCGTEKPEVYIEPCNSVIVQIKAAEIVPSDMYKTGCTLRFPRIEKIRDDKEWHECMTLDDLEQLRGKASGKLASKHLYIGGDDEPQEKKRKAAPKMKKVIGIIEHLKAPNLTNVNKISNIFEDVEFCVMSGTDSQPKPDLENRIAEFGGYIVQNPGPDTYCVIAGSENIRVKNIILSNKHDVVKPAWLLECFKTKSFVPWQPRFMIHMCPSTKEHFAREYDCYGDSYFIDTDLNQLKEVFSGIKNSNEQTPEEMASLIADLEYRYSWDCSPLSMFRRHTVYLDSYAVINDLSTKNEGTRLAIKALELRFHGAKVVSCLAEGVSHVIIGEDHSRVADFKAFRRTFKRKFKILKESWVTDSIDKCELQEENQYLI
Chain of human LIG4 (Q13426 whole entry partner): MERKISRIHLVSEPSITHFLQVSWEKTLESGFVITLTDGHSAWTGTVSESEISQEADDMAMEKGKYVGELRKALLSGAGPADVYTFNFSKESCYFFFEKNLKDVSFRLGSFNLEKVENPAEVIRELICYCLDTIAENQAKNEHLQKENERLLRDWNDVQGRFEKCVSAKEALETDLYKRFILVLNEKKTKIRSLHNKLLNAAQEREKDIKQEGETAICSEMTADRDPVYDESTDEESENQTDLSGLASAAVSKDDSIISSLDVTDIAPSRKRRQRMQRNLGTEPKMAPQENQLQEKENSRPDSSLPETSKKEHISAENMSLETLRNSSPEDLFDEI

[9] = system: precise genome editing (PGE); conditions: SCR7 and L755507 added together with RS-1; cited from earlier work
[10] = system: polymerase theta (PoIQ); assay: Genome editing efficiency with PoIQ (MMEJ) inhibition in cells with DNA-PKcs KR mutation; format: cell-based, human; conditions: cells with DNA-PKcs KR mutation (NHEJ inhibited)
Experimental: FIG. 6: Inhibition of polymerase theta (PoIQ) dependent microhomology mediated end-joining (MMEJ) can further increase HDR if the target of interest is prone to MMEJ repair. All cells have inhibited NHEJ due to the DNA-PKcs KR mutation, which can be transiently achieved by M3814 in wildtype cells as well. Shown are genome editing efficiencies. Cells were treated with different amounts of siRNA against PoIQ (Dharmacon ON-TARGET plus Human POLQ (10721) siRNA-SMART pool), single nicking of the first exon of PolQ, a combination of the SMART pool and coding strand nicking, and siRNA against PoIQ binding the mRNA at the sequence corresponding to amino acid 765 of PolQ. A cell line with both DNA-PKcs KR and PoIQ knockout mutation is shown for comparison. HDR, mix (HDR with indels), NHEJ, and estimated MMEJ (at least 2 bp microhomology) are indicated in green, light green, light blue, and light purple, respectively. Error bars show the SEM of at least two replicates.
For some targets HDR is increased but a substantial portion of genome editing events however still consists of indels. These are due to the microhomology mediated end-joining (MMEJ) pathway (also referred to as alternative NHEJ) which can compete with NHEJ and serves as a back-up pathway which relies on short stretches of microhomology at the cleavage site. […]

[11] = system: K562 cells; assay: Resazurin assay for cell survival three days after editing; format: cell-based, human
Excerpt: FIG. 2: Cell survival of human immortalized myelogenous leukemia cells K562 cells after treatment with the small molecule M3814. Results of a resazurin assay for cell survival three days after editing are shown. Resazurin is converted into fluorescent resorfin by cellular dehydrogenases and resulting fluorescence (Excitation: 530-570 nm, Emission: 590-620 nm) is a marker for the amount of living cells. Resorfin fluorescence (610±30 nm) of cells without any treatment is set to 100% cell survival. Error bars show the SEM of three technical replicates for three technical replicates.
Cells were either seeded with or without editing reagents. The media was supplemented with or without M3814 and each condition was carried out in duplicate. After 72 h media was aspirated and 100 μl fresh media together with 10 μl resazurin solution (Cell Signaling, 11884) was added. Resazurin is converted into fluorescent resorfin by cellular dehydrogenases and resulting fluorescence (Excitation: 530-570 nm, Emission: 590-620 nm) is considered as a linear marker for cell viability (O'Brien et al. 2000). Cells were incubated with resazurin at 37° C. The redox reaction was measured every hour by fluorescence readings using a Typhoon 9410 imager (Amersham Biosciences). […] Duplicate wells with media and resazurin, but without cells, were used a blank.

[12] = system: H9 hESCs; assay: Genome editing of LYPLA1 and SCAP by Cas9n double nicking in H9 hESCs-iCRISPR; format: cell-based, human; conditions: M3814 for three days
Excerpt: Genome editing efficiencies of the LYPLA1 and SCAP gene in H9 hESCs-iCRISPR Cas9 nickase (Cas9n) double nicking and treatment with M3814 for three days and with DNA-PKcs K3753R cells are shown. HDR, mix (HDR with indels), NHEJ (non-homologous end joining), and MMEJ (microhomology-mediated end joining with at least two bp of microhomology) are indicated in green, light green, light blue, and light purple, respectively.
as §1, with “The media was supplemented with 10 μM Rho-associated protein kinase (ROCK) inhibitor Y-27632 (Calbiochem, 688000) after cell splitting for one day in order to increase cell survival.” left out
The recombinant A.s. […] Cells were counted using the Countess Automated Cell Counter (Invitrogen). […]

With `O=c1cc(N2CCOCC2)oc2c1ccc1ccccc12` [NU7026] the “HDR-increasing effect / precise genome editing efficiency, comparison of DNA-PKcs inhibitors” value [1] was “significantly less precise genome editing efficiency” and the “HDR efficiencies” value [2] was “much lower efficiencies”.

With `NC(Cc1cc(O)c(O)cc1O)C(=O)O` (centres unmarked) [6-hydroxy-depa, 6-hydroxy-dopa] the “HDR, combined NHEJ/MMEJ/SSA inhibition” value [3] was “drastic HDR increase”.

For `O=c1[nH]c(=S)[nH]c(N=Cc2ccccc2)c1N=Cc1ccccc1` [SCR7], the “efficiency of PGE” value ([4]; from 5% without SCR7 (Maruyama et al. 2015)) is listed as 22.7%, the “effect on PGE” value ([4]; other researchers) is listed as “no significant effect” and the “effect on PGE” value [5] is listed as “marginal but significant increase”. The “effect on PGE” value [6] was “no significant effect”, the “effect on PGE” value [7] was “no significant effect” and the “inhibitory properties on human LIG4” value [8] was “neither selective nor potent inhibitors”. For the same compound, the “effect on PGE when added together with RS-1, compared to RS-1 alone” value [9] was “no additive effect”.

In the case of “siRNA aa765: siRNA binding PoIQ mRNA before the sequence corresponding to the first RAD51 binding domain (SEQ ID NO: 63) (TTGGAAAATACTGTAATCATCCCTGCA; listed as DNA, chemistry not given here)”, the “HDR and indels with MMEJ signature, siRNA alone” value [10] is reported as “high HDR”.

For `NC(=O)c1ncn([C@@H]2O[C@H](COP(=O)(O)O)[C@@H](O)[C@H]2O)c1N` [AICAR, AICA ribonucleotide 5′-monophosphate], the “HDR, combined NHEJ/MMEJ/SSA inhibition” value [3] was “drastic HDR increase”.

In the case of `COc1ccc([C@@H](O)c2cc(-c3ncnc4cc(N5CCOCC5)ccc34)c(F)cc2Cl)nn1` [M3814, Nedisertib], the “precise genome editing / HDR efficiency” value ([1]; K562 cells expressing wild-type DNA-PKcs, FRMD7, Cas9, transient M3814 treatment (three days), 18% without M3814) is reported as 81%, the “HDR-increasing effect / precise genome editing efficiency, comparison of DNA-PKcs inhibitors” value [1] is reported as “stronger HDR-increasing effect than treatment with NU7026 and NU7441” and the “toxicity (cell survival, resazurin assay)” value [11] is reported as “moderate toxicity”. For the same compound, the “HDR efficiencies compared with DNA-PKcs K3753R mutation” value [12] was “comparable to what is achievable by total inactivation of the DNA-PKcs catalytic active site”, the “HDR efficiencies” value [2] was “strongly increased HDR efficiencies” and the “HDR, combined NHEJ/MMEJ/SSA inhibition” value [3] was “drastic HDR increase”.

In the case of `O=c1cc(N2CCOCC2)oc2c(-c3cccc4c3sc3ccccc34)cccc12` [NU7441], the “HDR-increasing effect / precise genome editing efficiency, comparison of DNA-PKcs inhibitors” value [1] is reported as “significantly less precise genome editing efficiency” and the “HDR efficiencies” value [2] is reported as “much lower efficiencies”.
